According to patent US20260216170A1, “TETRAHYDROISOQUINOLINE HETEROBIFUNCTIONAL BCL-XL DEGRADERS” (Treeline Biosciences, Inc., priority 2023, published 2026):

Molecular target: T1, Human BCL-XL protein (N-terminal HiBiT tagged BCL-XL expressed in HT1080 cells) (Homo sapiens, UniProt Q07817)
T1 construct: expressed in transfected cells; host or cells: HT-1080 (ATCC CCL-121), stably transduced with lentivirus pLV-UBC-N-HiBiT-BCL-XL-PGK-puro and selected with puromycin
Assay: HiBiT Based Degradation Assay
Assay type: cell-based
Conditions: 24 hours incubation; for DC50: BCL-XL degradation, HT1080 cells expressing N-HiBiT-BCL-XL, normalized with DMSO control, geometric mean for multiple data points, read-out: EC50 (24 h); for Ymin (24 h): bottom of BCL-XL degradation curve (remaining HiBiT-BCL-XL signal vs DMSO control), HT1080 cells
Description: HiBiT Based Degradation Assay
Human BCL-XL protein coding open reading frame fused with N-terminal HiBiT coding sequence (N-HiBiT-BCL-XL) was synthesized from Integrated DNA Technologies (IDT). Next, N-HiBiT-BCL-XL sequence was cloned into pLV-UBC-PGK-Puro, a lentivirus plasmid purchased from Vectorbuilder, to generate pLV-UBC-N-HiBiT-BCL-XL-PGK-puro. Lentiviral particles were generated from Lenti-X™ 293T cells (Clontech) by co-transfection of pLV-UBC-N-HiBiT-BCL-XL-PGK-puro plasmids and lentiviral packaging plasmid mix (Cellecta). HT-1080 [HT1080](ATCC CCL-121™) cells were infected with the lentivirus, and HT1080 cells stably integrated with the lentiviral vector were established by incubation with 1 μg/mL puromycin (Thermofisher). HT1080 cells expressing N-terminal HiBiT tagged BCL-XL were dispensed into 384-well plates pre-spotted with compounds at varying concentrations. Three thousand cells were seeded into each well in 40 μL of RPMI 1640 media. After 24 hours of incubation at 37° C. with 5% CO2, 30 μL of the NANO-GLO® HiBiT Lytic Detection System working solution (Promega) was added to each well and incubated at room temperature for 30 min. After incubation, luminescence was read on a PHERAstar FSX Plate Reader (BMG). BCL-XL degradation at each indicated concentration was normalized with DMSO control. The BCL-XL degradation curves were plotted using a four-parameter logistic model. For compounds displaying hook effects, curve fitting was performed using bottom point of hook curves (i.e., the point of Ymin) as bottom plateau to calculate EC50. For compounds with multiple data points, the geometric mean is presented.

T1 sequence (Q07817 whole entry): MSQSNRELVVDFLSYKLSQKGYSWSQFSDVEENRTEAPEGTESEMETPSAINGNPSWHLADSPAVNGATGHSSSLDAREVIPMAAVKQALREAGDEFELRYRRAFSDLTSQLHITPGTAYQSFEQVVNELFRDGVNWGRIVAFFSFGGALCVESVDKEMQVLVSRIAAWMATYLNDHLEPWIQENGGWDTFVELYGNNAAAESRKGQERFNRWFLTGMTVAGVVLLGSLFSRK

DC50	Ymin (24 h)	SMILES
< 10 nM	A (Ymin < 30%)	Cc1cc(OC[C@H]2C[C@@H]2C2CCN(CC(=O)Nc3ccc4c(C5CCC(=O)NC5=O)nn(C)c4c3)CC2)ccc1-c1ccc(N2CCc3cccc(C(=O)Nc4nc5ccccc5s4)c3C2)nc1C(=O)O (relative stereo) [Compound 1003a, 6-(8-(benzo[d]thiazol-2-ylcarbamoyl)-3,4-dihydroisoquinolin-2(1H)-yl)-3-(4-(((1S,2R)-2-(1-(2-((3-(2,6-dioxopiperidin-3-yl)-1-methyl-1H-indazol-6-yl)amino)-2-oxoethyl)piperidin-4-yl)cyclopropyl)methoxy)-2-methylphenyl)picolinic acid]
10 to 100 nM	B (30% ≤ Ymin < 50%)	C[C@@H](COc1ccc(-c2ccc(N3CCc4cccc(C(=O)Nc5nc6ccccc6s5)c4C3)nc2C(=O)O)c(C(F)(F)F)c1)CC1CCN(CC(=O)Nc2ccc3c(C4CCC(=O)NC4=O)nn(C)c3c2)CC1 (single isomer, unassigned) [Compound 130a]
10 to 100 nM	B (30% ≤ Ymin < 50%)	C[C@H](COc1ccc(-c2ccc(N3CCc4cccc(C(=O)Nc5nc6ccccc6s5)c4C3)nc2C(=O)O)c(C(F)(F)F)c1)CC1CCN(CC(=O)Nc2ccc3c(C4CCC(=O)NC4=O)nn(C)c3c2)CC1 (single isomer, unassigned) [Compound 130b]
10 to 100 nM	B (30% ≤ Ymin < 50%)	Cc1cc(O[C@H](C)CCC2CCN(CC(=O)Nc3ccc4c(C5CCC(=O)NC5=O)nn(C)c4c3)CC2)ccc1-c1ccc(N2CCc3ccnc(C(=O)Nc4nc5ccccc5s4)c3C2)nc1C(=O)O (single isomer, unassigned) [Compound 133a]
10 to 100 nM	A (Ymin < 30%)	Cc1cc(O[C@@H](C)CCC2CCN(CC(=O)Nc3ccc4c(C5CCC(=O)NC5=O)nn(C)c4c3)CC2)ccc1-c1ccc(N2CCc3ccnc(C(=O)Nc4nc5ccccc5s4)c3C2)nc1C(=O)O (single isomer, unassigned) [Compound 133b]
< 10 nM	B (30% ≤ Ymin < 50%)	C[C@@H](CCC1CCN(CC(=O)Nc2ccc3c(C4CCC(=O)NC4=O)nn(C)c3c2)CC1)Oc1ccc(-c2ccc(N3CCc4cccc(C(=O)Nc5nc6ccccc6s5)c4C3)nc2C(=O)O)c(C(F)(F)F)c1 (single isomer, unassigned) [Compound 138a]
10 to 100 nM	B (30% ≤ Ymin < 50%)	C[C@H](CCC1CCN(CC(=O)Nc2ccc3c(C4CCC(=O)NC4=O)nn(C)c3c2)CC1)Oc1ccc(-c2ccc(N3CCc4cccc(C(=O)Nc5nc6ccccc6s5)c4C3)nc2C(=O)O)c(C(F)(F)F)c1 (single isomer, unassigned) [Compound 138b]
< 10 nM	A (Ymin < 30%)	Cc1cc(OC[C@H](C)CC2CCN(CC(=O)Nc3ccc4c(C5CCC(=O)NC5=O)nn(C)c4c3)CC2)ccc1-c1ccc(N2CCc3ccnc(C(=O)Nc4nc5ccccc5s4)c3C2)nc1C(=O)O (single isomer, unassigned) [Compound 140a]
10 to 100 nM	A (Ymin < 30%)	Cc1cc(OC[C@@H](C)CC2CCN(CC(=O)Nc3ccc4c(C5CCC(=O)NC5=O)nn(C)c4c3)CC2)ccc1-c1ccc(N2CCc3ccnc(C(=O)Nc4nc5ccccc5s4)c3C2)nc1C(=O)O (single isomer, unassigned) [Compound 140b]
10 to 100 nM	B (30% ≤ Ymin < 50%)	COc1c(NC(=O)CN2CCC(CC[C@H](C)Oc3ccc(-c4ccc(N5CCc6cccc(C(=O)Nc7nc8ccccc8s7)c6C5)nc4C(=O)O)c(C)c3)CC2)ccc2c(C3CCC(=O)NC3=O)nn(C)c12 (single isomer, unassigned) [Compound 223a]
10 to 100 nM	A (Ymin < 30%)	COc1c(NC(=O)CN2CCC(CC[C@@H](C)Oc3ccc(-c4ccc(N5CCc6cccc(C(=O)Nc7nc8ccccc8s7)c6C5)nc4C(=O)O)c(C)c3)CC2)ccc2c(C3CCC(=O)NC3=O)nn(C)c12 (single isomer, unassigned) [Compound 223b]
10 to 100 nM	B (30% ≤ Ymin < 50%)	Cc1cc(O[C@@H](C)CCC2CCN(CC(=O)Nc3ccc4c(C5CCC(=O)NC5=O)nn(C)c4c3F)CC2)ccc1-c1ccc(N2CCc3cccc(C(=O)Nc4nc5ccccc5s4)c3C2)nc1C(=O)O (single isomer, unassigned) [Compound 224a]
10 to 100 nM	A (Ymin < 30%)	Cc1cc(O[C@H](C)CCC2CCN(CC(=O)Nc3ccc4c(C5CCC(=O)NC5=O)nn(C)c4c3F)CC2)ccc1-c1ccc(N2CCc3cccc(C(=O)Nc4nc5ccccc5s4)c3C2)nc1C(=O)O (single isomer, unassigned) [Compound 224b]
10 to 100 nM	B (30% ≤ Ymin < 50%)	Cc1cc(O[C@@H](C)CCC2CCN(CC(=O)Nc3ccc4c(C5CCC(=O)NC5=O)nn(C)c4n3)CC2)ccc1-c1ccc(N2CCc3cccc(C(=O)Nc4nc5ccccc5s4)c3C2)nc1C(=O)O (single isomer, unassigned) [Compound 225a]
10 to 100 nM	B (30% ≤ Ymin < 50%)	Cc1cc(O[C@H](C)CCC2CCN(CC(=O)Nc3ccc4c(C5CCC(=O)NC5=O)nn(C)c4n3)CC2)ccc1-c1ccc(N2CCc3cccc(C(=O)Nc4nc5ccccc5s4)c3C2)nc1C(=O)O (single isomer, unassigned) [Compound 225b]
10 to 100 nM	B (30% ≤ Ymin < 50%)	Cc1c(OC[C@@H]2C[C@H]2C2CCN(CC(=O)Nc3ccc4c(C5CCC(=O)NC5=O)nn(C)c4c3)CC2)cccc1-c1ccc(N2CCc3cccc(C(=O)Nc4nc5ccccc5s4)c3C2)nc1C(=O)O (single isomer, unassigned) [Compound 1001a]
10 to 100 nM	B (30% ≤ Ymin < 50%)	Cc1c(OC[C@H]2C[C@@H]2C2CCN(CC(=O)Nc3ccc4c(C5CCC(=O)NC5=O)nn(C)c4c3)CC2)cccc1-c1ccc(N2CCc3cccc(C(=O)Nc4nc5ccccc5s4)c3C2)nc1C(=O)O (single isomer, unassigned) [Compound 1001b]
10 to 100 nM	B (30% ≤ Ymin < 50%)	Cc1c(OC[C@H]2C[C@H]2C2CCN(CC(=O)Nc3ccc4c(C5CCC(=O)NC5=O)nn(C)c4c3)CC2)cccc1-c1ccc(N2CCc3cccc(C(=O)Nc4nc5ccccc5s4)c3C2)nc1C(=O)O (single isomer, unassigned) [Compound 1001c]
10 to 100 nM	B (30% ≤ Ymin < 50%)	Cc1c(OC[C@@H]2C[C@@H]2C2CCN(CC(=O)Nc3ccc4c(C5CCC(=O)NC5=O)nn(C)c4c3)CC2)cccc1-c1ccc(N2CCc3cccc(C(=O)Nc4nc5ccccc5s4)c3C2)nc1C(=O)O (single isomer, unassigned) [Compound 1001d]
< 10 nM	B (30% ≤ Ymin < 50%)	Cc1cc(OC[C@H]2C[C@@H]2CC2CCN(CC(=O)Nc3ccc4c(C5CCC(=O)NC5=O)nn(C)c4c3)CC2)ccc1-c1ccc(N2CCc3cccc(C(=O)Nc4nc5ccccc5s4)c3C2)nc1C(=O)O (single isomer, unassigned) [Compound 1002a]
< 10 nM	B (30% ≤ Ymin < 50%)	Cc1cc(OC[C@H]2C[C@H]2CC2CCN(CC(=O)Nc3ccc4c(C5CCC(=O)NC5=O)nn(C)c4c3)CC2)ccc1-c1ccc(N2CCc3cccc(C(=O)Nc4nc5ccccc5s4)c3C2)nc1C(=O)O (single isomer, unassigned) [Compound 1002b]
< 10 nM	A (Ymin < 30%)	Cc1cc(OC[C@@H]2C[C@H]2CC2CCN(CC(=O)Nc3ccc4c(C5CCC(=O)NC5=O)nn(C)c4c3)CC2)ccc1-c1ccc(N2CCc3cccc(C(=O)Nc4nc5ccccc5s4)c3C2)nc1C(=O)O (single isomer, unassigned) [Compound 1002c]
< 10 nM	A (Ymin < 30%)	Cc1cc(OC[C@@H]2C[C@@H]2CC2CCN(CC(=O)Nc3ccc4c(C5CCC(=O)NC5=O)nn(C)c4c3)CC2)ccc1-c1ccc(N2CCc3cccc(C(=O)Nc4nc5ccccc5s4)c3C2)nc1C(=O)O (single isomer, unassigned) [Compound 1002d]
< 10 nM	B (30% ≤ Ymin < 50%)	Cc1cc(OC[C@@H]2C[C@H]2C2CCN(CC(=O)Nc3ccc4c(C5CCC(=O)NC5=O)nn(C)c4c3)CC2)ccc1-c1ccc(N2CCc3cccc(C(=O)Nc4nc5ccccc5s4)c3C2)nc1C(=O)O (single isomer, unassigned) [Compound 1003b]
< 10 nM	A (Ymin < 30%)	Cc1cc(OC[C@H]2C[C@H]2C2CCN(CC(=O)Nc3ccc4c(C5CCC(=O)NC5=O)nn(C)c4c3)CC2)ccc1-c1ccc(N2CCc3cccc(C(=O)Nc4nc5ccccc5s4)c3C2)nc1C(=O)O (single isomer, unassigned) [Compound 1003c]
